Test [1] relates to release of the leukotriene LTB4 from MPRO cell line. The test is described as follows: LTB4 assay (competitive ELISA). The test is classed as cell-based. The note with it: Mus musculus; 1 μM calcium ionophore A23187, 1 hour; read-out: EC50, inhibition of LTB4 production. An excerpt: This procedure was used for measuring the release of the leukotriene LTB4 from a neutrophil cell line using a competitive ELISA technique.
• MPRO cell line (ATCC, Catalog #CRL-11422) • Calciumionophore (A23187) (Sigma, Catalog #C7522) • Nordihydroguaiaretic acid (NDGA) (BioMol, Catalog #E1101-0001) • Retinoic Acid (all-trans) (ATRA) (Sigma, Catalog #95152) • Sterile, tissue-culture treated 96-well plates (Corning, Catalog #3614) Materials for LTB4 ELISA • Precoated (Mouse Anti-Rabbit IgG) EIA 96 Well Strip Plates (Cayman, Catalog #400004) • Leukotriene B4 AChE Tracer (Cayman Catalog #420110) • Leukotriene B4 EIA Antiserum (Cayman Catalog #420112) • Ellman's Reagent (Cayman Catalog #400050) • EIA Buffer Concentrate (10×) (Cayman Catalog #400060) • Wash Buffer Concentrate (400×) (Cayman Catalog #400062) • Plastic plate covers (Cayman Catalog #400012) Procedure
A mouse promyelocytic cell line (MPRO) was used in this assay. These cells are committed immature neutrophils that can be differentiated into mature neutrophils by treatment with 10 μM all-trans retinoic acid for 72 hours
Following 72 hours of differentiation, cells were stimulated with 1 μM of a calcium ionophore (A23187) in the presence or absence of test compound or vehicle for 1 hour at 370 C. After this time, supernatant was removed from the cells and the LTB4 levels were determined following manufacturer's instructions, using a Leukotriene B4 EIA kit from Cayman (Cat #520111)
The negative controls were media samples from differentiated but unstimulated cells.
The compounds were screened at 5 concentrations in quadruplicate starting at 10 μM
On the technique in general: ELISA stands for enzyme-linked immunosorbent assay.

In test [2] the target is T1, porcine leukocyte 12/15-lipoxygenase (Sus scrofa, UniProt P16469).
T1 construct: purchased Cayman 60300
T1 sequence (P16469 1-663): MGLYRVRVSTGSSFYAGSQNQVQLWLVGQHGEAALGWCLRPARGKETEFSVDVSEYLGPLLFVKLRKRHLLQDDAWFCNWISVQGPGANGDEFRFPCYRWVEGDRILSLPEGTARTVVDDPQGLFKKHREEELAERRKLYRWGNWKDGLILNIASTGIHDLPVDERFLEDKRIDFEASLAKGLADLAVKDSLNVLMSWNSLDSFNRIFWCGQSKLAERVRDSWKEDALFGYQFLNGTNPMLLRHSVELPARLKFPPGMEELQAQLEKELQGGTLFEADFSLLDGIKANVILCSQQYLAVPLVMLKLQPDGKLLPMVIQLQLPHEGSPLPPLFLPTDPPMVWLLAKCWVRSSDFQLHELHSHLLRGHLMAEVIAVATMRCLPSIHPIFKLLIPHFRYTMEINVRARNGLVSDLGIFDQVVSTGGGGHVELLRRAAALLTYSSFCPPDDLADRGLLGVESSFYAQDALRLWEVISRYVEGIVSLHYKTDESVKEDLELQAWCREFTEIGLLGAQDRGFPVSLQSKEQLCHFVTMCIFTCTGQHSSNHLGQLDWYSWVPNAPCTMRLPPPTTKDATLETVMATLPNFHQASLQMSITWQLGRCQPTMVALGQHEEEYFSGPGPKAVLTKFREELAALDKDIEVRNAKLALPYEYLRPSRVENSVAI
The test is described as follows: 12/15-Lipoxygenase enzyme assay. It counts as biochemical. As to conditions: 70 μM arachidonic acid, pH 7.4, 10 minute incubation; read-out: IC50, inhibition of 12/15-Lipoxygenase.

Broadly, the EC50 is the concentration giving half of the maximal effect. Turning to `C=CCSCc1c(O)c(C)c(C)c2c1CCC(C)(C)O2` [5-Allylsulfanylmethyl-2,2,7,8-tetramethyl-chroman-6-ol], the EC50 in test [1] is less than 1000 nM. The IC50 in test [2] was less than 1000 nM.

For the molecule `COC(=O)c1ccc(-c2c(O)c(C)c(C)c3c2CCC(C)(C)O3)cc1` [4-(6-Hydroxy-2,2,7,8-tetramethyl-chroman-5-yl)-benzoic acid methyl ester], the EC50 in test [1] was less than 1000 nM. Moreover, the IC50 in test [2] is less than 1000 nM.

As to `Cc1c(C)c2c(c(C)c1O)CCC(C)(C=C(Br)Br)O2` (stereo not drawn) [2-(2,2-Dibromo-vinyl)-2,5,7,8-tetramethyl-chroman-6-ol], in test [1], the EC50 was less than 1000 nM. In addition, the IC50 in test [2] was less than 1000 nM.

For the origin of these results see patent US8791155B2, “Chroman derivatives” (Edison Pharmaceuticals, Inc., priority 2003, dated 2014).
